The subject of test [1] is HCC78 cells having ROS1 fusion gene. The test can be described thus: HCC78 cell growth assay (CellTiter-Glo). As to conditions: Homo sapiens, HCC78, 72 h, 72 hours culture, 2% FBS medium, luminescence, four separate measurements; read-out: growth inhibitory effect on HCC78 cells having ROS1 fusion gene IC50. The test is classed as cell-based.
The target of the next test is T1, NTRK3 (Homo sapiens, UniProt Q16288).
T1 construct: purchased Carna Biosciences 08-197
Description: NTRK kinase enzyme inhibitory activity evaluation, NTRK3. The test is classed as biochemical. As to conditions: FL-Peptide 27 substrate, ATP Km=32 μM, three separate measurements. As to the method: (§1) NTRK1, NTRK2, and NTRK3 kinase solutions were each prepared. […]; Next, a substrate reaction solution was prepared.
(§2) Subsequently, a reaction stop solution was prepared. The composition is as follows: 100 mM HEPES (pH 7.4), 0.015% Brij-35, 40 mM EDTA, and 0.1% Coating Reagent 3 (Caliper Life Sciences #760050).
(§3) The NTRK1, NTRK2, and NTRK3 kinase solutions were each added at a concentration of 19 μL/well to a 96-well plate. Each compound for evaluation dissolved in DMSO to achieve each final concentration was added to the plate, mixed using a plate mixer, and then preincubated at room temperature for 20 minutes. […] Then, the reaction stop solution was added thereto at a concentration of 40 μL/well. Substrate phosphorylation intensity was measured using EZ Reader II (Caliper Life Sciences). IC50 values were calculated by curve fitting using Microsoft Excel 2010 on the basis of data obtained from three separate measurements.

A further test addresses T2, NTRK2 (Homo sapiens, UniProt Q16620).
T2 construct: purchased Carna Biosciences 08-187
The test can be described thus: NTRK kinase enzyme inhibitory activity evaluation, NTRK2. The conditions noted are these: FL-Peptide 27 substrate, ATP Km=63 μM, three separate measurements. The test is classed as biochemical. The procedure: as §1, §2, §3

The next test deals with T3, NTRK1 (Homo sapiens, UniProt P04629).
T3 construct: purchased Carna Biosciences 08-186
T3 sequence (P04629 33-796): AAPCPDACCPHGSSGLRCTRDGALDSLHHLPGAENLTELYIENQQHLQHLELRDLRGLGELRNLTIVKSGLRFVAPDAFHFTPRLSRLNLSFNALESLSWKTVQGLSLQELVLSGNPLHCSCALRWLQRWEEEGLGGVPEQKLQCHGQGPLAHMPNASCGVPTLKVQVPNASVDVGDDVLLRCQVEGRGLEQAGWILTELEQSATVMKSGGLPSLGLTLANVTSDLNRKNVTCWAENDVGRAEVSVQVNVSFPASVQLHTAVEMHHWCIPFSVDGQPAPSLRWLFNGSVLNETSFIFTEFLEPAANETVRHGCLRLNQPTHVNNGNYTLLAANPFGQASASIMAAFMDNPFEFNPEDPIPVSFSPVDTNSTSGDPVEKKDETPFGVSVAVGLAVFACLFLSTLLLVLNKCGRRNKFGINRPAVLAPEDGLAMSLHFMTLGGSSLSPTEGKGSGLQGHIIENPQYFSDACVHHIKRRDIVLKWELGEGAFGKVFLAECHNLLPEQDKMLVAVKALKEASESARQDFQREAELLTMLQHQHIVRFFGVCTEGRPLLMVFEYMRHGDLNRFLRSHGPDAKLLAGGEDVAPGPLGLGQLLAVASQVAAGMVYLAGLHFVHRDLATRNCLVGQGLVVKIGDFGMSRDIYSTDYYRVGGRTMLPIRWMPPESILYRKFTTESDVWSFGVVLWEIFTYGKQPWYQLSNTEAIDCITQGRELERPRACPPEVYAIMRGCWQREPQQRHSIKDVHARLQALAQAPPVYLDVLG
The test can be described thus: NTRK kinase enzyme inhibitory activity evaluation, NTRK1. The test is classed as biochemical. The conditions noted are these: FL-Peptide 27 substrate, ATP Km=33 μM, three separate measurements. As to the method: as §1, §2, §3

Test [2] has as its target T4, ROS1 (Homo sapiens, UniProt P08922).
T4 construct: purchased Carna Biosciences 08-163
The test can be described thus: ROS1 autophosphorylation inhibitory activity evaluation (ADP-Glo). The test is classed as biochemical. As to conditions: 200 nM inactive ROS1, ATP 1 mM, 25° C. 1.5 hours, ADP generated, four separate measurements. The essentials: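 IC50 was derived by curve fitting of ADP output measured with ADP-Glo reagents. The output reflects ROS1 self-phosphorylation over 1.5 hours at 25° C. Buffer was HEPES pH 7.5 with MgCl2, Brij-58 and DTT, and ATP was 1 mM final.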
In general terms: In ADP-Glo the light output rises with the ADP produced.

The target in test [3] is T4, ROS1. The test can be described thus: ROS1 kinase inhibitory activity evaluation (mobility shift, EZ Reader II). The conditions noted are these: ROS1 25 pg/μL, FL-Peptide 22 substrate, three separate measurements. It counts as biochemical. The procedure:
Next, a substrate reaction solution was prepared. […] Then, the reaction stop solution was added thereto at a concentration of 40 μL/well. Substrate phosphorylation intensity was measured using EZ Reader II (Caliper Life Sciences).

The structures appear in SMILES notation. pIC50: −log10 of the molar value. Bounds are passed on as bounds.

T2 sequence (Q16620 32-822): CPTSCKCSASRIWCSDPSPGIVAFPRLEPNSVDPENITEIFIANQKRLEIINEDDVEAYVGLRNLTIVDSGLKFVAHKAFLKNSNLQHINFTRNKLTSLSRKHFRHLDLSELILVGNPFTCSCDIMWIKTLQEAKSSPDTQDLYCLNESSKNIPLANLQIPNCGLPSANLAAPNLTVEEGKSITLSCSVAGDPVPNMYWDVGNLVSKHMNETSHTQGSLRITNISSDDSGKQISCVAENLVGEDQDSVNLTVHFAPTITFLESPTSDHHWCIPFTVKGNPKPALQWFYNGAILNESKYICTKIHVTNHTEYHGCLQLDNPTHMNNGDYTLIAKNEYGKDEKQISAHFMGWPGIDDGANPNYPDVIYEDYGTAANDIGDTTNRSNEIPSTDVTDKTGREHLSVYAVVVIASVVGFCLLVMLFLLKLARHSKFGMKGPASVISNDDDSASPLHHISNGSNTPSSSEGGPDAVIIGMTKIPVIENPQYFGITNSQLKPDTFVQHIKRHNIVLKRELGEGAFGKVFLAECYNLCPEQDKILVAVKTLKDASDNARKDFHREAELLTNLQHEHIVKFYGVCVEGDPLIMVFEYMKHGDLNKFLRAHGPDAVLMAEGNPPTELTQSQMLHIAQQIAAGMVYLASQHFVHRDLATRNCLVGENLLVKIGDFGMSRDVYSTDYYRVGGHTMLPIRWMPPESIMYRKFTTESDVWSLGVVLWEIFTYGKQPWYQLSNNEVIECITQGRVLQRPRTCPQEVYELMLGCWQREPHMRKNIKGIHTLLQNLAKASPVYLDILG
T4 sequence (P08922 28-2347): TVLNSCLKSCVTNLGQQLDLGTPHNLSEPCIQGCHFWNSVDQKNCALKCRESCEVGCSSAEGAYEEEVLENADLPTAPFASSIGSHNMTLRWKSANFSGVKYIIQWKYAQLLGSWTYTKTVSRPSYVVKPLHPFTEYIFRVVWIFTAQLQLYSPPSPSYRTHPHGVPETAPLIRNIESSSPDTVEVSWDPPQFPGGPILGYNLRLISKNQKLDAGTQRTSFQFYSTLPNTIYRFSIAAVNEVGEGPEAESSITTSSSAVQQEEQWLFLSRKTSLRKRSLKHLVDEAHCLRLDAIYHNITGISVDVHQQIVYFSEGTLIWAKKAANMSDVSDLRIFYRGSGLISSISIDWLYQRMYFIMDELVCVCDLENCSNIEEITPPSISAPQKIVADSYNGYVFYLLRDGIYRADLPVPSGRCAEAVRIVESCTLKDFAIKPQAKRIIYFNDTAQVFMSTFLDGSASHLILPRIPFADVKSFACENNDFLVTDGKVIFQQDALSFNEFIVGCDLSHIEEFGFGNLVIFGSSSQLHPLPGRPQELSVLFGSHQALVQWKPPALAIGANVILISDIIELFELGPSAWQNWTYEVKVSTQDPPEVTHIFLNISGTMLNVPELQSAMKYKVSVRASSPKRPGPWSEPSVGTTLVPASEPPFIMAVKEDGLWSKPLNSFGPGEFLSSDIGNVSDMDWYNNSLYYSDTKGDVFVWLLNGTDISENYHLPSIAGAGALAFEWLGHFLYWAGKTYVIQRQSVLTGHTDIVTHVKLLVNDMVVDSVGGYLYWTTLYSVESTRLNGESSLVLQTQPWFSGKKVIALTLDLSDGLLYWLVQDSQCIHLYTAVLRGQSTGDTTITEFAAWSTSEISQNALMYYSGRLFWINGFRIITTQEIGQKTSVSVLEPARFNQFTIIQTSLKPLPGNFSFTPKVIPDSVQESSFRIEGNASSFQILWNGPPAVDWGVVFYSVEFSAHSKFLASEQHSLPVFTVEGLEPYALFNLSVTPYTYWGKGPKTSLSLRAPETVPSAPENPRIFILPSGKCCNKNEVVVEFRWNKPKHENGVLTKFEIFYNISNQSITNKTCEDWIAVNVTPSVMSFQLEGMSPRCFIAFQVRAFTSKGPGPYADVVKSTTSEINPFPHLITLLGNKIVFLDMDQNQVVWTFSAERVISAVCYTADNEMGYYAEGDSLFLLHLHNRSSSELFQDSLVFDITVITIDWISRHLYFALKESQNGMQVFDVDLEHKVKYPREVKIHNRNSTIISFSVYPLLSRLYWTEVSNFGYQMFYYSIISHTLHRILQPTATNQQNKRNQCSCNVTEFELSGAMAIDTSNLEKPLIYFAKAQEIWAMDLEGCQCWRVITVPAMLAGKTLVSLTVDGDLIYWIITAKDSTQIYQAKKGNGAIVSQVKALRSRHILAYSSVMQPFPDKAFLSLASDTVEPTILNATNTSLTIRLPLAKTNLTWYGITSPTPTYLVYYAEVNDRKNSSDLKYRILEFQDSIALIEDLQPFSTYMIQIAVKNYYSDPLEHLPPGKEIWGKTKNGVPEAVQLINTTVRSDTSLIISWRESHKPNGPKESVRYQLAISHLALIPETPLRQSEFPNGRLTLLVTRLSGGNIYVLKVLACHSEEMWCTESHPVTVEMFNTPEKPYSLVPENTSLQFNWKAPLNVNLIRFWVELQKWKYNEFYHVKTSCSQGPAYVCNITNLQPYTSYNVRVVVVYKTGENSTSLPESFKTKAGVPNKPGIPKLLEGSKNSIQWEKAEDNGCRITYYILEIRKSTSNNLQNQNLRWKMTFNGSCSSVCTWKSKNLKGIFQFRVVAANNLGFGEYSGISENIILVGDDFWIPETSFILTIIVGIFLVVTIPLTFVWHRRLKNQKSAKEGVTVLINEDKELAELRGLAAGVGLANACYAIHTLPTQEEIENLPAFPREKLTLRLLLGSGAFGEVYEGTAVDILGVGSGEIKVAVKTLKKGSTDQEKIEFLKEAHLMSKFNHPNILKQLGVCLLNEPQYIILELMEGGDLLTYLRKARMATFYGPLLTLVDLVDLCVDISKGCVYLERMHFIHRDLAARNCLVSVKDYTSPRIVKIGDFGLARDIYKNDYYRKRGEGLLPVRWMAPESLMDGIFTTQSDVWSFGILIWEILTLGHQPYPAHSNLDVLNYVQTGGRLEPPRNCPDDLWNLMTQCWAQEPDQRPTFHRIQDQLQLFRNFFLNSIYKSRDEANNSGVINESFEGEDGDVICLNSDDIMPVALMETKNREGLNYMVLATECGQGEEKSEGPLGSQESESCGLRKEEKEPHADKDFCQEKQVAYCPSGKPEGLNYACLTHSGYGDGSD
T1 sequence (Q16288 32-839): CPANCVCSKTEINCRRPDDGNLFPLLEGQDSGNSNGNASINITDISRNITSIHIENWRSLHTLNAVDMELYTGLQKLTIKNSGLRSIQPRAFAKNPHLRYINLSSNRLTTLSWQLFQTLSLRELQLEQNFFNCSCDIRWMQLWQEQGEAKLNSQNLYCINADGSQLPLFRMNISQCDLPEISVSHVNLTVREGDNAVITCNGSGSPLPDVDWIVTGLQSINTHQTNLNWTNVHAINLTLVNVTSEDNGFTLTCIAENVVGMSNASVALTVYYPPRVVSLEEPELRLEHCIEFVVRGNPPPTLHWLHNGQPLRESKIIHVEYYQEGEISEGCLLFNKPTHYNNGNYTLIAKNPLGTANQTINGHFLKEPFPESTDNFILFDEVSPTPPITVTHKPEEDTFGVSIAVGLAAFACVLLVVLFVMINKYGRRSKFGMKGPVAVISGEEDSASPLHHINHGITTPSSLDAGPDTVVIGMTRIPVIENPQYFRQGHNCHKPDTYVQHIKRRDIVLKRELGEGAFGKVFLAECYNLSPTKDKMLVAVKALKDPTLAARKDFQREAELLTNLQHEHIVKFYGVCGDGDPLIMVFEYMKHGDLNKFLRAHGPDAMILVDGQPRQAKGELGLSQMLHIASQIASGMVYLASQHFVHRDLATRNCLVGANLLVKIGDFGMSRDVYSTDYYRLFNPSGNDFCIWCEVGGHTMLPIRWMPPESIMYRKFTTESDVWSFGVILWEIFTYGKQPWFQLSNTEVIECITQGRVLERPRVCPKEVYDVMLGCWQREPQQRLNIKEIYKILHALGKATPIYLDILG

As to `C[C@H](N)COc1ccc(-c2cnc3ccc(N[C@H](C)c4cccc(F)c4)nn23)cc1` [Example 41, 3-[4-[(2S)-2-Aminopropoxy]phenyl]-N-[(1R)-1-(3-fluorophenyl)ethyl]imidazo[1,2-b]pyridazin-6-amine], the pIC50 (as a rule, the negative decadic logarithm of the IC50, by convention in mol/L) in test [1] was above 7.70; on NTRK3, above 8.30; on NTRK2, above 8.00; against NTRK1 it was above 8.30.

Regarding `CN(Cc1cccc(F)c1)c1ccc2ncc(-c3ccc(N4C[C@@H](N)CC4=O)cc3)n2n1` [Example 81, (4S)-4-Amino-1-[4-[6-[(3-fluorophenyl)methyl-methylamino]imidazo[1,2-b]pyridazin-3-yl]phenyl]pyrrolidin-2-one], the pIC50 is above 7.70 against ROS1 [2]; above 7.70 in test [1]; above 8.30 at NTRK3; above 8.00 on NTRK2; above 8.30 against NTRK1; above 9.00 on ROS1 [3].

Take `C[C@@H](Nc1ccc2ncc(-c3ccc(OC[C@@H]4CCN4)cc3)n2n1)c1cccc(F)c1` [Example 30, 3-[4-[[(2S)-Azetidin-2-yl]methoxy]phenyl]-N-[(1R)-1-(3-fluorophenyl)ethyl]imidazo[1,2-b]pyridazin-6-amine]: the negative-log IC50 (pIC50) against ROS1 [2] is above 7.70; in test [1] it was above 7.70; on NTRK3 it was above 8.30; on NTRK2, above 8.00; against NTRK1 it was above 8.30; at ROS1 [3], above 9.00.

Take `C[C@@H](Oc1ccc2ncc(-c3ccc(N4C[C@@H](N)CC4=O)cc3)n2n1)c1cccc(F)c1` [Example 79, (4S)-4-Amino-1-[4-[6-[(1R)-1-(3-fluorophenyl)ethoxy]imidazo[1,2-b]pyridazin-3-yl]phenyl]pyrrolidin-2-one]: the pIC50 in test [1] was above 7.70; on NTRK3, above 8.30; against NTRK2, above 8.00; at NTRK1 it was above 8.30; on ROS1 [3], above 9.00.

Turning to `COc1cc(N2C[C@@H](N)CC2=O)ccc1-c1cnc2ccc(N(C)Cc3cccc(F)c3)nn12` [Example 85, (4S)-4-Amino-1-[4-[6-[(3-fluorophenyl)methyl-methylamino]imidazo[1,2-b]pyridazin-3-yl]-3-methoxyphenyl]pyrrolidin-2-one], the pIC50 against ROS1 [2] is above 7.70; in test [1] it was 7.00 to 7.70; at NTRK3, above 8.30; at NTRK2, above 8.00; against NTRK1, above 8.30; on ROS1 [3] it was 8.00 to 9.00.

With `C[C@@H](N)COc1ccc(-c2cnc3ccc(N[C@H](C)c4cccc(F)c4)nn23)cc1` [Example 21, 3-[4-[(2R)-2-Aminopropoxy]phenyl]-N-[(1R)-1-(3-fluorophenyl)ethyl]imidazo[1,2-b]pyridazin-6-amine], the pIC50 was above 7.70 in test [1], above 8.30 against NTRK3, above 8.00 against NTRK2 and above 8.30 on NTRK1.

For the molecule `C[C@@H](Nc1ccc2ncc(-c3ccc(OC[C@@H]4CCCN4)cc3)n2n1)c1cccc(F)c1` [Example 24, N-[(1R)-1-(3-Fluorophenyl)ethyl]-3-[4-[[(2S)-pyrrolidin-2-yl]methoxy]phenyl]imidazo[1,2-b]pyridazin-6-amine], the pIC50 is above 7.70 against ROS1 [2]; 7.00 to 7.70 in test [1]; above 8.30 on NTRK3; above 8.00 on NTRK2; above 8.30 at NTRK1; above 9.00 at ROS1 [3].

For the molecule `CNCCOc1ccc(-c2cnc3ccc(N[C@H](C)c4cccc(F)c4)nn23)cc1` [Example 29, N-[(1R)-1-(3-Fluorophenyl)ethyl]-3-[4-[2-(methylamino)ethoxy]phenyl]imidazo[1,2-b]pyridazin-6-amine], the pIC50 against ROS1 [2] was above 7.70; in test [1], above 7.70; at NTRK3, above 8.30; on NTRK2 it was above 8.00; against NTRK1 it was above 8.30; at ROS1 [3], above 9.00.

On to `C[C@@H](Nc1ccc2ncc(-c3ccc(N4C[C@@H](N)CC4=O)cc3)n2n1)c1cccc(F)c1` [Example 90, (4S)-4-Amino-1-[4-[6-[[(1R)-1-(3-fluorophenyl)ethyl]amino]imidazo[1,2-b]pyridazin-3-yl]phenyl]pyrrolidin-2-one], for which the pIC50 is above 7.70 against ROS1 [2]; above 7.70 in test [1]; above 8.30 on NTRK3; above 8.00 against NTRK2; above 8.30 on NTRK1; above 9.00 at ROS1 [3].

On to `CN(Cc1cccc(F)c1)c1ccc2ncc(-c3ccc(N4CC(C)(N)CC4=O)cc3)n2n1` (stereo not shown) [Example 84, 4-Amino-1-[4-[6-[(3-fluorophenyl)methyl-methylamino]imidazo[1,2-b]pyridazin-3-yl]phenyl]-4-methylpyrrolidin-2-one], for which the pIC50 on ROS1 [2] was 7.00 to 7.70; in test [1], 7.00 to 7.70; at ROS1 [3] it was 8.00 to 9.00.

On to `C[C@@H](Oc1ccc2ncc(-c3ccc(N4C[C@@H](N)CC4=O)c(F)c3)n2n1)c1cncc(F)c1` [Example 109, (4S)-4-Amino-1-[2-fluoro-4-[6-[(1R)-1-(5-fluoro-3-pyridyl)ethoxy]imidazo[1,2-b]pyridazin-3-yl]phenyl]pyrrolidin-2-one], for which the pIC50 on ROS1 [2] is 6.82 to 7.00; in test [1] it was 7.00 to 7.70; on ROS1 [3] it was 7.22 to 8.00.

Consider `Fc1cccc(COc2ccc3ncc(-c4ccc(O[C@@H]5CCNC5)cc4)n3n2)c1` [Example 13, 6-[(3-Fluorophenyl)methoxy]-3-[4-[(3R)-pyrrolidin-3-yl]oxyphenyl]imidazo[1,2-b]pyridazine], for which the results for the pIC50 (at ROS1 [2]; in test [1]; on ROS1 [3]) were 6.82 to 7.00, 6.22 to 7.00 and 8.00 to 9.00, respectively.

For `C[C@@H](Nc1ccc2ncc(-c3ccc(OCC4(N)CC4)cc3)n2n1)c1cccc(F)c1` [Example 39, 3-[4-[(1-Aminocyclopropyl)methoxy]phenyl]-N-[(1R)-1-(3-fluorophenyl)ethyl]imidazo[1,2-b]pyridazin-6-amine], the results for the negative logarithm of the IC50 (pIC50) (against ROS1 [2]; in test [1]; on ROS1 [3]) were above 7.70, 7.00 to 7.70 and above 9.00, respectively.

On to `CC(Oc1ccc2ncc(-c3ccc(N4C[C@@H](N)CC4=O)cc3)n2n1)c1cn(C(F)F)nn1` (stereo partly drawn) [Example 115, (4S)-4-Amino-1-[4-[6-[1-[1-(difluoromethyl)triazol-4-yl]ethoxy]imidazo[1,2-b]pyridazin-3-yl]phenyl]pyrrolidin-2-one], for which the values for the pIC50 (at ROS1 [2]; in test [1]; on ROS1 [3]) were 6.82 to 7.00, 6.22 to 7.00 and 7.22 to 8.00, respectively.

Take `C[C@@H](Nc1ccc2ncc(-c3ccc(OCCCN)cc3)n2n1)c1cccc(F)c1` [Example 28, 3-[4-(3-Aminopropoxy)phenyl]-N-[(1R)-1-(3-fluorophenyl)ethyl]imidazo[1,2-b]pyridazin-6-amine]: the pIC50 was above 7.70 against ROS1 [2], 7.00 to 7.70 in test [1] and above 9.00 on ROS1 [3].

Turning to `C[C@@H](Nc1ccc2ncc(-c3ccc(O[C@@H]4CCNC4)cc3)n2n1)c1cccc(F)c1` [Example 22, N-[(1R)-1-(3-Fluorophenyl)ethyl]-3-[4-[(3R)-pyrrolidin-3-yl]oxyphenyl]imidazo[1,2-b]pyridazin-6-amine], the pIC50 is above 7.70 at ROS1 [2], 7.00 to 7.70 in test [1] and above 9.00 on ROS1 [3].

As to `C[C@@H](Nc1ccc2ncc(-c3ccc(OCCN(C)C)cc3)n2n1)c1cccc(F)c1` [Example 69, 3-[4-(2-Dimethylaminoethoxy)phenyl]-N-[(1R)-1-(3-fluorophenyl)ethyl]imidazo[1,2-b]pyridazin-6-amine], the pIC50 at ROS1 [2] is above 7.70; in test [1], above 7.70; on ROS1 [3], above 9.00.

On to `CN(Cc1cccc(F)c1)c1ccc2ncc(-c3ccc(N4C[C@@H](N)CC4=O)nc3)n2n1` [Example 128, (4S)-4-Amino-1-[5-[6-[(3-fluorophenyl)methyl-methylamino]imidazo[1,2-b]pyridazin-3-yl]-2-pyridyl]pyrrolidin-2-one], for which the values for the pIC50 (against ROS1 [2]; in test [1]; at ROS1 [3]) were above 7.70, 7.00 to 7.70 and above 9.00, respectively.

For `C[C@@H](Nc1ccc2ncc(-c3ccc(N4C[C@@H](N)CC4=O)cc3F)n2n1)c1cccc(F)c1` [Example 93, (4S)-4-Amino-1-[3-fluoro-4-[6-[[(1R)-1-(3-fluorophenyl)ethyl]amino]imidazo[1,2-b]pyridazin-3-yl]phenyl]pyrrolidin-2-one], the pIC50 against ROS1 [2] was above 7.70; in test [1], above 7.70; on ROS1 [3], above 9.00.

The values above are taken from patent US9751887B2, “Imidazo[1,2-b]pyridazine derivatives as kinase inhibitors” (Daiichi Sankyo Company, Limited, priority 2012, dated 2017).
